Source: PubChem BioAssay (NCI)
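96-well plates; 48 h exposure; 5 concentrations. Endpoints by linear interpolation between flanking doses. Not reached: highest tested concentration assigned. GI50: concentration for 50% inhibition of growth. At the TGI there is no net growth.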

Legend:
Experiment in all cases: growth of human tumour cells (NCI), 48 h
SK-MEL-5 melanoma = tested on: SK-MEL-5 melanoma
UACC-257 melanoma = tested on: UACC-257 melanoma
UACC-62 melanoma = tested on: UACC-62 melanoma
RPMI-8226 leukemia = tested on: RPMI-8226 leukemia
SN12C renal = tested on: SN12C renal
DU-145 prostate = tested on: DU-145 prostate
HL-60(TB) leukemia = tested on: HL-60(TB) leukemia
SF-539 CNS = tested on: SF-539 CNS
SR leukemia = tested on: SR leukemia
A549 NSCLC = tested on: A549 NSCLC
SNB-75 CNS = tested on: SNB-75 CNS
SNB-19 CNS = tested on: SNB-19 CNS
HT29 colon = tested on: HT29 colon
T-47D breast = tested on: T-47D breast
MDA-MB-231 breast = tested on: MDA-MB-231 breast
SW-620 colon = tested on: SW-620 colon
BT-549 breast = tested on: BT-549 breast
M14 melanoma = tested on: M14 melanoma
NCI/ADR-RES ovarian = tested on: NCI/ADR-RES ovarian
SF-268 CNS = tested on: SF-268 CNS
SK-MEL-2 melanoma = tested on: SK-MEL-2 melanoma
MDA-MB-435 = tested on: MDA-MB-435
MOLT-4 leukemia = tested on: MOLT-4 leukemia
NCI-H522 lung = tested on: NCI-H522 lung
NCI-H226 lung = tested on: NCI-H226 lung
HOP-62 NSCLC = tested on: HOP-62 NSCLC
SF-295 CNS = tested on: SF-295 CNS
U251 CNS = tested on: U251 CNS
HS 578T breast = tested on: HS 578T breast
OVCAR-4 ovarian = tested on: OVCAR-4 ovarian
HCC-2998 colon = tested on: HCC-2998 colon
MCF7 breast = tested on: MCF7 breast
TK-10 renal = tested on: TK-10 renal
RXF 393 renal = tested on: RXF 393 renal
HOP-92 NSCLC = tested on: HOP-92 NSCLC
NCI-H460 lung = tested on: NCI-H460 lung
HCT-116 colon = tested on: HCT-116 colon
KM12 colon = tested on: KM12 colon
LOX IMVI melanoma = tested on: LOX IMVI melanoma
SK-MEL-28 melanoma = tested on: SK-MEL-28 melanoma
OVCAR-8 ovarian = tested on: OVCAR-8 ovarian
OVCAR-5 ovarian = tested on: OVCAR-5 ovarian
786-0 renal = tested on: 786-0 renal
PC-3 prostate = tested on: PC-3 prostate
ACHN renal = tested on: ACHN renal
A498 renal = tested on: A498 renal
CAKI-1 renal = tested on: CAKI-1 renal
NCI-H23 lung = tested on: NCI-H23 lung
UO-31 renal = tested on: UO-31 renal
COLO 205 colon = tested on: COLO 205 colon
SK-OV-3 ovarian = tested on: SK-OV-3 ovarian
EKVX NSCLC = tested on: EKVX NSCLC
K-562 leukemia = tested on: K-562 leukemia
HCT-15 colon = tested on: HCT-15 colon
IGROV1 ovarian = tested on: IGROV1 ovarian
MALME-3M melanoma = tested on: MALME-3M melanoma
CCRF-CEM leukemia = tested on: CCRF-CEM leukemia

Oc1cccc2ccc(-c3nnc(SCc4ccc(O)c5ncccc45)n3-c3ccccc3)nc12
GI50 (SK-MEL-5 melanoma): 0.579 µM
GI50 (UACC-257 melanoma): 0.708 µM
TGI (UACC-257 melanoma): 6.62 µM
GI50 (UACC-62 melanoma): 1.06 µM
TGI (UACC-62 melanoma): 5.08 µM
GI50 (RPMI-8226 leukemia): 0.437 µM
TGI (RPMI-8226 leukemia): > 100 µM
GI50 (SN12C renal): 0.448 µM
TGI (SN12C renal): 18.3 µM
GI50 (DU-145 prostate): 0.58 µM
TGI (DU-145 prostate): > 100 µM
GI50 (HL-60(TB) leukemia): 0.369 µM
GI50 (SF-539 CNS): 0.43 µM
TGI (SF-539 CNS): 3.41 µM
GI50 (SR leukemia): 0.385 µM
TGI (SR leukemia): > 50.8 µM
GI50 (A549 NSCLC): 0.651 µM
TGI (A549 NSCLC): > 35.8 µM
GI50 (SNB-75 CNS): 0.279 µM
TGI (SNB-75 CNS): 4.42 µM
GI50 (SNB-19 CNS): 0.425 µM
TGI (SNB-19 CNS): > 44.1 µM
GI50 (HT29 colon): 7.4 µM
TGI (HT29 colon): > 100 µM
GI50 (T-47D breast): 0.38 µM
TGI (T-47D breast): 2.57 µM
GI50 (MDA-MB-231 breast): 0.996 µM
TGI (MDA-MB-231 breast): 16.2 µM
GI50 (SW-620 colon): 0.403 µM
TGI (SW-620 colon): > 35.7 µM
GI50 (BT-549 breast): 0.419 µM
TGI (BT-549 breast): > 21.7 µM
GI50 (M14 melanoma): 0.476 µM
TGI (M14 melanoma): 3.5 µM
GI50 (NCI/ADR-RES ovarian): 0.356 µM
TGI (NCI/ADR-RES ovarian): 6.33 µM
GI50 (SF-268 CNS): 0.471 µM
TGI (SF-268 CNS): > 73.9 µM
GI50 (SK-MEL-2 melanoma): 0.54 µM
TGI (SK-MEL-2 melanoma): 5.71 µM
GI50 (MDA-MB-435): 0.441 µM
TGI (MDA-MB-435): > 73.8 µM
GI50 (MOLT-4 leukemia): 0.459 µM
TGI (MOLT-4 leukemia): > 47.4 µM
GI50 (NCI-H522 lung): 0.456 µM
TGI (NCI-H522 lung): 11.9 µM
GI50 (NCI-H226 lung): 3.04 µM
TGI (NCI-H226 lung): > 50.8 µM
GI50 (HOP-62 NSCLC): 0.519 µM
TGI (HOP-62 NSCLC): 6.84 µM
GI50 (SF-295 CNS): 0.46 µM
TGI (SF-295 CNS): 11.9 µM
GI50 (U251 CNS): 0.293 µM
TGI (U251 CNS): 7.6 µM
GI50 (HS 578T breast): 0.398 µM
TGI (HS 578T breast): 6.24 µM
GI50 (OVCAR-4 ovarian): 0.672 µM
TGI (OVCAR-4 ovarian): 9.21 µM
GI50 (HCC-2998 colon): 0.612 µM
TGI (HCC-2998 colon): > 100 µM
GI50 (MCF7 breast): 0.325 µM
TGI (MCF7 breast): > 35.3 µM
GI50 (TK-10 renal): 0.428 µM
TGI (TK-10 renal): 7.28 µM
GI50 (RXF 393 renal): 0.744 µM
TGI (RXF 393 renal): 19.1 µM
GI50 (HOP-92 NSCLC): 0.257 µM
TGI (HOP-92 NSCLC): 0.94 µM
GI50 (NCI-H460 lung): 0.311 µM
TGI (NCI-H460 lung): 1.56 µM
GI50 (HCT-116 colon): 0.324 µM
TGI (HCT-116 colon): 9.38 µM
GI50 (KM12 colon): 0.507 µM
TGI (KM12 colon): > 100 µM
GI50 (LOX IMVI melanoma): 0.556 µM
TGI (LOX IMVI melanoma): 7.94 µM
GI50 (SK-MEL-28 melanoma): 0.533 µM
TGI (SK-MEL-28 melanoma): > 100 µM
GI50 (OVCAR-8 ovarian): 0.408 µM
TGI (OVCAR-8 ovarian): 11.9 µM
GI50 (OVCAR-5 ovarian): 3.43 µM
TGI (OVCAR-5 ovarian): > 81.1 µM
GI50 (786-0 renal): 0.759 µM
TGI (786-0 renal): 11.7 µM
GI50 (PC-3 prostate): 0.391 µM
TGI (PC-3 prostate): > 37.8 µM
GI50 (ACHN renal): 0.419 µM
TGI (ACHN renal): 2.44 µM
GI50 (A498 renal): 1.81 µM
TGI (A498 renal): > 31 µM
GI50 (CAKI-1 renal): 0.518 µM
TGI (CAKI-1 renal): 7.25 µM
GI50 (NCI-H23 lung): 0.533 µM
TGI (NCI-H23 lung): > 33.5 µM
GI50 (UO-31 renal): 0.297 µM
TGI (UO-31 renal): 1.57 µM
GI50 (COLO 205 colon): 4.36 µM
TGI (COLO 205 colon): > 100 µM
GI50 (SK-OV-3 ovarian): 0.529 µM
TGI (SK-OV-3 ovarian): 4.89 µM
GI50 (EKVX NSCLC): 0.788 µM
TGI (EKVX NSCLC): > 26.4 µM
GI50 (K-562 leukemia): 0.339 µM
TGI (K-562 leukemia): > 100 µM
GI50 (HCT-15 colon): 0.323 µM
TGI (HCT-15 colon): > 37.1 µM
GI50 (IGROV1 ovarian): 0.735 µM
TGI (IGROV1 ovarian): 11.5 µM
GI50 (MALME-3M melanoma): 0.599 µM
TGI (MALME-3M melanoma): 5 µM
GI50 (CCRF-CEM leukemia): 0.411 µM
TGI (CCRF-CEM leukemia): > 63.7 µM
